Data set [1] relates to MDA-MB-231 and HCT-116 cell lines. As to the kind of experiment: Growth inhibition screening assay (In Cell IC50). The note with it: Homo sapiens, 72 h; 3 days with compound. In kind it is cell-based, human. As to the method:
(§1) Cell were maintained in standard tissue culture media (RPMI1640, +10% fetal bovine serum, plus antibiotic) and grown in a standard humidified 5% CO2 incubator at 37° C. Cells were regularly tested using the MycoAlert detection kit (Lonza Biologics) and shown to be mycoplasma-free. Initial compound screening was performed using both MDA-MB-23 land HCT-116 cell lines. For moderate throughput screening (up to 120 drugs per experiment), cells were seeded into 96 well plates and allowed to attach overnight. The following day media was removed and replaced with fresh compound containing media. Each compound was tested against both cell lines at 3 concentrations; 1 μM, 10 μM and 50 μM, in duplicate. Cells were incubated with compound containing media for three days in a standard 5% CO2 tissue culture incubator. Cell growth was assessed after 3 days using the DNA dye binding assay, as originally described by LaBarca and Paigen. Relative growth was independently calculated for each cell line, based on DNA content from corresponding cells grown in control media plus diluent (DMSO). Additional growth inhibition experiments utilized either the DNA binding assay or the Promega CellTiter 96® (MTT reduction) assay, with similar results. For detailed growth inhibition assays, cells (1500-2500 depending on the growth characteristics of the cell line) were seeded in standard 96 well tissue culture plates and allowed to attach overnight. The following day media was removed and replaced with drug containing media. Each dose group consisted of 5 replicate wells, and results are reported a Relative Growth, calculated as DNA or MTT reduction per well, divided by the signal from untreated cells, both harvested 3 days after drug administration.

For data set [2], the system named is MDA-MB-231, HCT116, A549 and Panc1 cell lines. Kind of data set: Detailed growth inhibition studies, median effect dose. The format is cell-based. The note with it: Homo sapiens, 72 h, read-out: median effect dose (Dm), growth inhibitory activity. As for the experimental part: Cell were maintained in standard tissue culture media (RPMI1640, +10% fetal bovine serum, plus antibiotic) and grown in a standard humidified 5% CO2 incubator at 37° C. […] For moderate throughput screening (up to 120 drugs per experiment), cells were seeded into 96 well plates and allowed to attach overnight. The following day media was removed and replaced with fresh compound containing media. Each compound was tested against both cell lines at 3 concentrations; 1 μM, 10 μM and 50 μM, in duplicate. Cells were incubated with compound containing media for three days in a standard 5% CO2 tissue culture incubator. Cell growth was assessed after 3 days using the DNA dye binding assay, as originally described by LaBarca and Paigen. Relative growth was independently calculated for each cell line, based on DNA content from corresponding cells grown in control media plus diluent (DMSO). […] The following day media was removed and replaced with drug containing media.
Over 190 compounds were screened for their ability to inhibit growth and/or induce cell death in established cancer cell lines.

The test system of data set [3] is select cancer cell lines. Kind of data set: Cellular IC50 of NSAAH library (Table 3). In kind it is cell-based. As for the experimental part:
as §1

Data set [4] has as its system MDA-231. As to the kind of experiment: Time dependence of growth inhibitory activity, MDA-231. The format is cell-based. The note with it: Homo sapiens, MDA-MB-231. As for the experimental part: (§2) The growth inhibition assay was performed in the Preclinical Drug Testing Laboratory of the Case Comprehensive Cancer Center using a standardized protocol. Cell lines (human colon cancer HCT116 and human breast cancer MDA-MB-231 cells) were maintained in standard growth media; RPMI1640+10% FBS+2 mM glutamine+100U/ml penicillin, 100 ug/ml streptomycin and shown to be negative for mycoplasma contamination using the MycoAlert™ Mycoplasma Detection kit (Lonza, Basel, Switzerland). Cell identity was verified by Short Tandem Repeat (STR) testing performed using the Promega StemElite kit, in the Genetic Resources Core Facility (GRCF) at Johns Hopkins University.
(§3) For growth inhibition assays, cells were harvested by trypsinization and seeded into 96-well tissue culture plates at 2500 cells/mL. The following day an equal volume of 2×-drug containing medium was added to each well. […] Cell growth was assessed by measuring DNA content per well using the method of Labarca and Paigen. Dye fluorescence was measured in a Perkin-Elmer 1420 Victor3 Multilabel plate reader using 355 nm excitation and 460 nm emission.

The subject of data set [5] is HCT116. Kind of data set: Time dependence of growth inhibitory activity, HCT116. The note with it: Homo sapiens, HCT-116. The format is cell-based. As for the experimental part:
as §2, §3

For data set [6], the system named is Panc1. As to the kind of experiment: Time dependence of growth inhibitory activity, Panc1. The format is cell-based. The note with it: Homo sapiens, PANC-1.
Data set [7] is described as follows: Metal chelation by UV spectroscopy titration, Mg2+. In kind it is physicochemical. The note with it: 100 μM ligand, 10 mM ammonium acetate pH 7.0, metal 100 μM to 1 mM. The source says: There have been multiple reports of small molecule agents inhibiting RR through the scavenging of free radicals that are required for the reduction of nucleotide diphosphates. Nitric oxide and hydroxyurea (that quench the tyrosyl free radicals), and iron chelating small molecules such as desferrioxamine (that irreversibly chelate to Fe-(II) that is essential for -housing the free radicals) are a few examples. […] Therefore to test this hypothesis, the propensity of NSAAH-E-3A to bind to Mg^2+ and Fe^2+ (both present in the inhibition assay previously described) was determined by UV spectroscopy. In 10 mM ammonium acetate buffer (pH 7.0), a 100 μM solution of NSAAH-E-3A was titrated against FeCl2.6H2O and MgCl2.6H2O idependently at varying concentrations of metal ranging from 100 μM to 1 mM. The stoichiometry of NSAAH-E-3A : M^2+ tested were 1:1, 1:2, 1:3, 1:4, 1:5, 1:6, 1:7, 1:8, 1:9, and 1:10. A scanning UV […] spectrum was recorded between 200-800 nm at each concentration. Noticeable changes occurred -when NSAAH-E-3A was subjected to a titration with FeCl2.6H2O at concentrations of metal ranging from 600 μM to 1 mM. […] Similarly, a titration experiment was carried against Mg^2+ salt at concentrations of metal ranging from 100 μM to 1 mM at stoichiometry of 1:1, 1:2, 1:3, 1:4, 1:5, 1:6, 1:7, 1:8, 1:9, and 1:10.

The subject of data set [8] is normal mobilized peripheral blood progenitor cells. Kind of data set: Blood progenitor colony forming unit (CFU) assay. In kind it is cell-based, human. The note with it: 14 days. As to the method: The CFU assay was performed in the Hematopoietic Biorepository and Cellular Therapy Core Facility of the Case Comprehensive Cancer Center using a standardized protocol.
Briefly, mobilized peripheral blood mononuclear cells were collected from healthy donors by apheresis after Neupogen stimulation under University Hospitals IRB Protocol #09-90-195. Excess discarded cells were diluted to 1(10^6) cells/mL in RPMI1640+15% fetal bovine serum, 100 U/mL penicillin, 100 μg/mL streptomycin and 50.4 units/ml GM-CSF. Drug solution was added to the cell suspension and 9× volume of complete methylcellulose (Methocult H4434+50 μM hemin.). The methylcellulose/cell suspension was aliquoted into triplicate 35-mm gridded tissue culture plates and incubated in a humidified 5% CO2 incubator at 37° C. for 14 days. Plates were counted visually and clusters of >50 cells were scored as surviving colonies.

The target of data set [9] is T1, RR (Homo sapiens, UniProt P23921).
T1 construct: endogenous in cells; host or cells: established human cancer cell lines (MDA-MB-231, HCT-116; also A549, Panc1)
T1 sequence (P23921 1-792): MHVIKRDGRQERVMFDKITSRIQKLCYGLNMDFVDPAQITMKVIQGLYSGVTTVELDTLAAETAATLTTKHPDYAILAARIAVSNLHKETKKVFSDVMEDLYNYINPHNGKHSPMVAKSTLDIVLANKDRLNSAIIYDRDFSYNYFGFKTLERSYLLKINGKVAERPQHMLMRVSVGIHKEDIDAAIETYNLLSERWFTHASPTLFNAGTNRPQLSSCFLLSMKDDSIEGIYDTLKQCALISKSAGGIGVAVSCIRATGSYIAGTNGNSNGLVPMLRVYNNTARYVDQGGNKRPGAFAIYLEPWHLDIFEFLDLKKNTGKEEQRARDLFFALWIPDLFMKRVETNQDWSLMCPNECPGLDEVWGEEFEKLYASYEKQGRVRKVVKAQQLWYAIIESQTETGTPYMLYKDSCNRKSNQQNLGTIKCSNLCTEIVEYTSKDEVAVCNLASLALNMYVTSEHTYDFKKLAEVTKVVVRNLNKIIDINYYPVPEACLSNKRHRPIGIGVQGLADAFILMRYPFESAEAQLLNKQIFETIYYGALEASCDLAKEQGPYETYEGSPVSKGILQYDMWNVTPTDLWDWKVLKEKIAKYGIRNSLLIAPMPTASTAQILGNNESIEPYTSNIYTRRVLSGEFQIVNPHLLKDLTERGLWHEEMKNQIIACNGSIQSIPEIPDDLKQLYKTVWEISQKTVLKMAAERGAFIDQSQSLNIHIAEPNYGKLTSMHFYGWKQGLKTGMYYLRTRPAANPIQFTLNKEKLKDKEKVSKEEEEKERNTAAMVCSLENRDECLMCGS
T1 sequence (P31350 1-389 partner): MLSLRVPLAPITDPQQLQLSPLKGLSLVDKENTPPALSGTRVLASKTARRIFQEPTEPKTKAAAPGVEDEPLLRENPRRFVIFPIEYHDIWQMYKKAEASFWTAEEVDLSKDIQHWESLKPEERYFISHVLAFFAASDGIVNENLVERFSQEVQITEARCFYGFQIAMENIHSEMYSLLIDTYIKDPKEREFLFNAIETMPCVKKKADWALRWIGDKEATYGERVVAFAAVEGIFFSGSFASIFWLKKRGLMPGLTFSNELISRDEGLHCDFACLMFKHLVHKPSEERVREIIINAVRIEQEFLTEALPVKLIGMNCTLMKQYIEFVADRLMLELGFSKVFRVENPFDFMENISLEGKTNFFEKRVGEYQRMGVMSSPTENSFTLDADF
Kind of data set: In Vivo RR IC50 (Table 2). The format is cell-based. The note with it: In Vivo RR IC50^b (μM).

The target in data set [10] is T2, hRR (hRRM1 and hRRM2) (Homo sapiens, UniProt P23921).
T2 sequence (P23921 1-792): T1 sequence (P23921 1-792)
T2 sequence (P31350 1-389 partner): T1 sequence (P31350 1-389 partner)
As to the kind of experiment: biochemical.
Procedure: The buffer solution (50 mM HEPES at pH 7.6, 5% (v/v) glycerol, 0.1M KCl) and the hRRM2 protein in the buffer solution were prepared under deoxygenated conditions. Both solutions were taken into the glove box and FeNH4SO4 was dissolved in the buffer solution. 5 equivalents of Fe (II) per hRRM2 dimer from FeNH4SO4 (determined by Ferrozine assay) was added to the protein solution and incubated at 4° C. in the glove box. Upon removal of the protein from the glove box, freshly prepared O2-saturated buffer solution (50 mM HEPES at pH 7.6, 5% (v/v) glycerol, 0.1M KCl) was added. Excess iron was removed by S200 10/300 size exclusion chromatography. […] The reaction mixture was pre-incubated for 3 min at 37° C., and 30 μL aliquots were sampled at fixed time intervals after initiating the reaction. Reactions were quenched by immersion in a boiling water bath, cooling, and treatment with alkaline phosphatase. The product ^14-dADP that formed during the reaction was separated from substrate-ADP using boronate affinity chromatography. ^14-dADP was quantified by liquid scintillation counting using a Beckman LS6500 liquid scintillation counter.
Briefly, boronate chromatography was used to separate the product.

Data set [11] relates to MDA-MB-231. As to the kind of experiment: Combination experiment: gemcitabine with sublethal compound 2. The note with it: Homo sapiens, MDA-MB-231, read-out: Dm, Gemcitabine alone.

Read-outs that look alike come from different tables or passages of the source.

As to `O=C(N/N=C/c1c(O)ccc2ccccc12)c1ccccc1O` [compound 3, (E)-2-hydroxy-N′-((2-hydroxynaphthalenyl)methylene) benzohydrazide], the IC50 in [1] was 380 nM; in [2], 500 to 1000 nM; in [3] it was 0.225 nM; in data set [4] (MDA-231, Drug Exposure 2 hr), more than 10000 nM; in data set [4] (MDA-231, Drug Exposure 6 hr), more than 10000 nM; in data set [4] (MDA-231, Drug Exposure 24 hr) it was 658 nM. For the same molecule, the IC50 in [4] (MDA-231, Drug Exposure 72 hr) is 498 nM; in data set [5] (HCT116, Drug Exposure 2 hr), more than 10000 nM; in data set [5] (HCT116, Drug Exposure 6 hr), more than 10000 nM; in [5] (HCT116, Drug Exposure 24 hr), 572 nM; in [5] (HCT116, Drug Exposure 72 hr), 221 nM; in data set [6] (Panc1, Drug Exposure 2 hr), more than 10000 nM. Besides, the IC50 in [6] (Panc1, Drug Exposure 6 hr) is more than 10000 nM; in [6] (Panc1, Drug Exposure 24 hr), 898 nM; in data set [6] (Panc1, Drug Exposure 72 hr), 442 nM. Also, the “ligand:Mg^2+ stoichiometry at which the UV spectrum shows binding” value in data set [7] is “no noticeable change”. Besides, the “cytotoxicity against normal blood progenitor cells” value in data set [8] was “little measurable cytotoxicity”.
As for `O=C(CCCCCCCCC(=O)N/N=C/c1c(O)ccc2ccccc12)N/N=C/c1c(O)ccc2ccccc12` [compound 4, N′1,N′10-bis((E)-(2-hydroxynaphthalenyl)methylene) decanedihydrazide], the IC50 in data set [1] is 60 to 2000 nM; in [2] (set of four cell lines, 3 days), 1000 to 10000 nM; in data set [9] (1 μM, sub-column 1 μM) it was 0.674 µM; in data set [9] (10 μM, sub-column 10 μM), 0.792 µM; in data set [10], 39.8 ± 0.9 µM.
Turning to `Nc1ccn([C@@H]2O[C@H](CO)[C@@H](O)C2(F)F)c(=O)n1` [Gemcitabine, reference compound], the IC50 is 500 to 1000 nM in [2] (set of four cell lines, 3 days); 1930 nM in [4] (MDA-231, Drug Exposure 2 hr); 1540 nM in data set [4] (MDA-231, Drug Exposure 6 hr); 274 nM in data set [4] (MDA-231, Drug Exposure 24 hr); 100 nM in data set [4] (MDA-231, Drug Exposure 72 hr); 487 nM in data set [5] (HCT116, Drug Exposure 2 hr). The IC50 in data set [5] (HCT116, Drug Exposure 6 hr) turned out to be 343 nM; in [5] (HCT116, Drug Exposure 24 hr) it was 58 nM; in data set [5] (HCT116, Drug Exposure 72 hr) it was 30 nM; in [6] (Panc1, Drug Exposure 2 hr), 680 nM; in data set [6] (Panc1, Drug Exposure 6 hr), 406 nM; in [6] (Panc1, Drug Exposure 24 hr) it was 84 nM. For the same molecule, the IC50 turned out to be 46 nM in data set [6] (Panc1, Drug Exposure 72 hr) and 920 nM in data set [11].

The values above are taken from patent publication US20180360782A1, “METHOD OF MODULATING RIBONUCLEOTIDE REDUCTASE” (CASE WESTERN RESERVE UNIVERSITY, priority 2015, published 2018).
